From patent US20160213647A1, “COMPOSITIONS AND METHODS FOR INHIBITING VIRAL INFECTION” (priority 2015, published 2016)
In brackets after ≈: the same amount, converted by molar mass. Like-named read-outs stand apart in the source and are kept apart here.

Tests used:
[1] = tested on: influenza A virus (IAV) strain PR8 (H1N1); assay type: cell-based
[2] = tested on: influenza A virus (IAV) strain PR8 (H1N1); assay type: cell-based; remark: listed apart in the source
Human cytomegalovirus = assay: microbe, parasite or virus in culture; assay type: cell-based; settings: Human betaherpesvirus 5
Varicella-zoster virus = assay: microbe, parasite or virus in culture; assay type: cell-based; settings: Human alphaherpesvirus 3
BK virus = assay: microbe, parasite or virus in culture; assay type: cell-based; settings: Betapolyomavirus hominis
Vaccinia = assay: microbe, parasite or virus in culture; assay type: cell-based; settings: Orthopoxvirus vaccinia
Rabies Virus = assay: microbe, parasite or virus in culture; assay type: cell-based; settings: Lyssavirus rabies
A/Udorn/72 (H3N2) = assay: microbe, parasite or virus in culture; assay type: cell-based; settings: Influenza A virus, H3N2, HEK-293T; read-out: EC50
[3] = tested on: arenavirus Tacaribe (TCRV), strain TRLV11573; assay: microbe, parasite or virus in culture; assay type: cell-based, Tacaribe virus; settings: Vero
[4] = tested on: arenavirus Tacaribe (TCRV), strain TRLV11573; assay: microbe, parasite or virus in culture; assay type: cell-based, Tacaribe virus; settings: A549
[5] = Cytotoxicity (CC50) in the in vitro viral screen; assay type: cell-based; settings: African green monkey, MA-104 cells; listed as Respiratory Syncytial Virus A2; visual
Source text: (§1) The results of an exemplary in vitro screen of the activity of AR-12 against various viruses is summarized below.

MA-104 = assay: Cytotoxicity (CC50) in the in vitro viral screen; assay type: cell-based; settings: listed as Respiratory Syncytial Virus A2; neutral red
Source text: as §1

RHDV isolate Ast/89 = assay: Treatment of rabbits infected with RHDV; assay type: in vivo, New Zealand white rabbits
Procedure: Nine-week-old New Zealand white rabbits in a climatized room at 21° C., with a 12 h light cycle in accordance with the experimental design shown in Table 9 and provided standard dry rabbit food and water ad libitum. For survival studies, 14 animals were injected intramuscularly with 2×10^4 hemagglutination units of RHDV isolate Ast/89 and six of them treated with AR-12 (25 mg/Kg body weight) at 0, 12, 24 and 36 hours post infection ([…]). Animals in those groups were left to die spontaneously.

DENV-2 = assay: Virus yield reduction assay by qRT-PCR in Vero cells; assay type: cell-based; settings: Dengue virus, DENV2, Vero, 48 h, read-out: Antiviral Activity IC50
DENV-3 = assay: as above; assay type: cell-based; settings: Dengue virus, DENV3, Vero, 48 h, read-out: Antiviral Activity IC50
DENV-4 = assay: as above; assay type: cell-based; settings: Dengue virus, DENV4, Vero, 48 h, read-out: Antiviral Activity IC50
in vitro = settings: African green monkey
[6] = long term oral exposures up to 33 weeks; cited from earlier work
[7] = in vivo; cited from earlier work
HIV-1 92HT599 = assay: microbe, parasite or virus in culture; settings: Human immunodeficiency virus 1, PBMC
HIV-1 MDR 769 = assay: microbe, parasite or virus in culture; settings: Human immunodeficiency virus 1, PBMC
JUNV strain IV4454 = assay: microbe, parasite or virus in culture; settings: Mammarenavirus juninense, Vero, 48 h
JUNV strain Candid-1 = assay: microbe, parasite or virus in culture; settings: Mammarenavirus juninense, A549, 48 h
three JUNV strains = assay: microbe, parasite or virus in culture; settings: Mammarenavirus juninense, read-out: EC50 values, range depending on the virus strain and the host cell
HIV-1 isolate MDR769 = assay: microbe, parasite or virus in culture; settings: Human immunodeficiency virus 1, PBMC
HIV-1 isolate MDR807 = assay: microbe, parasite or virus in culture; settings: Human immunodeficiency virus 1, PBMC
HIV-1 isolate A17 = assay: microbe, parasite or virus in culture; settings: Human immunodeficiency virus 1, PBMC
HIV-1 isolate 4736_4 = assay: microbe, parasite or virus in culture; settings: Human immunodeficiency virus 1, PBMC
CHIKV 899 wild-type = assay: Chikungunya virus-induced cell death (CPE, MTS/PMS) assay in Vero A cells
[8] = 25 mg/Kg ip, after about 36 hours post infection, versus RHDV

Structure (SMILES): NCC(=O)Nc1ccc(-n2nc(C(F)(F)F)cc2-c2ccc3c(ccc4ccccc43)c2)cc1 [AR-12, 2-amino-N-(4-(5-(phenanthren-2-yl)-3-(trifluoromethyl)-1H-pyrazol-1-yl)phenyl)acetamide]
- viral protein production is reduced [1]: at least 50%
- viral infection (% infection) [2]: prevents viral infections
- EC50 (Human cytomegalovirus): > 2400 nM
- EC90 (Human cytomegalovirus): > 2400 nM
- EC50 (Varicella-zoster virus): 1150 nM
- EC90 (Varicella-zoster virus): 1680 nM
- EC50 (BK virus): > 2400 nM
- EC90 (BK virus): > 2400 nM
- EC50 (Vaccinia): > 2400 nM
- EC90 (Vaccinia): > 2400 nM
- EC50 (Rabies Virus): 2610 nM
- EC50 (A/Udorn/72 (H3N2)): 330 nM
- EC50 [3]: 350 ± 30 nM
- EC50 [4]: 840 ± 20 nM
- CC50 [5]: 3.2 µg/mL (≈ 6.95 µM)
- CC50 (neutral red) (MA-104): 3.2 (visual), 3.2
- survival rates of infected rabbits increased (RHDV isolate Ast/89; 25 mg/Kg ip each 12 hours, at least about 24 hours post infection, p<0.05 Fisher test): about 20%
- level of marker of liver toxicity ALT (Alanine transaminase) (RHDV isolate Ast/89; [8]): decreased
- level of marker of liver toxicity AST (Aspartate transaminase) (RHDV isolate Ast/89; [8]): decreased
- level of marker of liver toxicity GGT (gamma-glutamyl transferase) (RHDV isolate Ast/89; [8]): decreased
- level of marker of liver toxicity LDH (lactate dehydrogenase) (RHDV isolate Ast/89; [8]): decreased
- IC50 (DENV-2): 800 nM
- IC50 (DENV-3): 600 nM
- IC50 (DENV-4): 890 nM
- IC50 (HIV-1 91US001): 240 nM
- IC50 (HIV-2 CDC 310319): 370 nM
- CC50 (neutral red) (Vero; listed as Pichinde Virus An 4763, neutral red): 2.8 µg/mL (≈ 6.08 µM)
- CC50 (visual) (Vero; listed as Pichinde Virus An 4763): 3.2 µg/mL (≈ 6.95 µM)
- CC50 (visual) (Vero; listed as Yellow Fever Virus 17D): 2.8 µg/mL (≈ 6.08 µM)
- CC50 (in vitro; CC50 (Neutral Red)): 1.8 µg/mL (≈ 3.91 µM)
- CC50 (in vitro; CC50 (neutral red)): 2.4 µg/mL (≈ 5.21 µM)
- CC50 (in vitro; CC50 (visual)): 2.8 µg/mL (≈ 6.08 µM)
- safety profile [6]: acceptable safety profile
- accumulation in tissues [7]: appreciable accumulation in tissues
- blood brain barrier penetration [7]: rapid blood brain barrier penetration
- IC50 (HIV-1 92HT599): 270 nM
- IC50 (HIV-1 MDR 769): 310 nM
- EC50 (JUNV strain IV4454): 510 ± 50 nM
- EC50 (JUNV strain Candid-1): 150 ± 20 nM
- EC50 (three JUNV strains): 150 to 550 nM
- IC90 (HIV-1 isolate MDR769): 848 nM
- IC90 (HIV-1 isolate MDR769; read-out: IC50): 3820 nM
- IC90 (HIV-1 isolate MDR807): 905 nM
- IC90 (HIV-1 isolate MDR807; read-out: IC50): 2130 nM
- IC90 (HIV-1 isolate A17): 914 nM
- IC90 (HIV-1 isolate A17; read-out: IC50): 6640 nM
- IC90 (HIV-1 isolate 4736_4): 762 nM
- IC90 (HIV-1 isolate 4736_4; read-out: IC50): 2240 nM
- selectivity index (CHIKV 899 wild-type; CC50/EC50, wild-type ChikV): 5.8
- EC50 (CHIKV 899 wild-type; Chikungunya virus, Vero, read-out: EC50 WT): 1100 ± 500 nM
